Reference: US4277479A, “Tetrazolylalkoxycarbostyril derivatives and pharmaceutical compositions containing them” (Otsuka Pharmaceutical Co., Ltd., priority 1978, dated 1981)

Tests used:
[1] = biological target: T1, cyclic AMP phosphodiesterase (Oryctolagus cuniculus, UniProt G1ST54); assay: Obstructive action against cyclic AMP phosphodiesterase; type: biochemical, rabbit; settings: 0.4 μmol cyclic AMP, read-out: Phosphodiesterase obstruction rate; for inhibition at 1 µM: concentration of test compound solution 10^-6 mole; for inhibition: concentration of test compound solution 10^-7 mole; for inhibition at 0.01 µM: concentration of test compound solution 10^-8 mole; for inhibition at 0.001 µM: concentration of test compound solution 10^-9 mole
T1 construct: the supernatant was collected to use it as a crude enzyme solution; from tissue; host or cells: rabbit platelets (from platelet-rich plasma)
T1 sequence (G1ST54 1-1128): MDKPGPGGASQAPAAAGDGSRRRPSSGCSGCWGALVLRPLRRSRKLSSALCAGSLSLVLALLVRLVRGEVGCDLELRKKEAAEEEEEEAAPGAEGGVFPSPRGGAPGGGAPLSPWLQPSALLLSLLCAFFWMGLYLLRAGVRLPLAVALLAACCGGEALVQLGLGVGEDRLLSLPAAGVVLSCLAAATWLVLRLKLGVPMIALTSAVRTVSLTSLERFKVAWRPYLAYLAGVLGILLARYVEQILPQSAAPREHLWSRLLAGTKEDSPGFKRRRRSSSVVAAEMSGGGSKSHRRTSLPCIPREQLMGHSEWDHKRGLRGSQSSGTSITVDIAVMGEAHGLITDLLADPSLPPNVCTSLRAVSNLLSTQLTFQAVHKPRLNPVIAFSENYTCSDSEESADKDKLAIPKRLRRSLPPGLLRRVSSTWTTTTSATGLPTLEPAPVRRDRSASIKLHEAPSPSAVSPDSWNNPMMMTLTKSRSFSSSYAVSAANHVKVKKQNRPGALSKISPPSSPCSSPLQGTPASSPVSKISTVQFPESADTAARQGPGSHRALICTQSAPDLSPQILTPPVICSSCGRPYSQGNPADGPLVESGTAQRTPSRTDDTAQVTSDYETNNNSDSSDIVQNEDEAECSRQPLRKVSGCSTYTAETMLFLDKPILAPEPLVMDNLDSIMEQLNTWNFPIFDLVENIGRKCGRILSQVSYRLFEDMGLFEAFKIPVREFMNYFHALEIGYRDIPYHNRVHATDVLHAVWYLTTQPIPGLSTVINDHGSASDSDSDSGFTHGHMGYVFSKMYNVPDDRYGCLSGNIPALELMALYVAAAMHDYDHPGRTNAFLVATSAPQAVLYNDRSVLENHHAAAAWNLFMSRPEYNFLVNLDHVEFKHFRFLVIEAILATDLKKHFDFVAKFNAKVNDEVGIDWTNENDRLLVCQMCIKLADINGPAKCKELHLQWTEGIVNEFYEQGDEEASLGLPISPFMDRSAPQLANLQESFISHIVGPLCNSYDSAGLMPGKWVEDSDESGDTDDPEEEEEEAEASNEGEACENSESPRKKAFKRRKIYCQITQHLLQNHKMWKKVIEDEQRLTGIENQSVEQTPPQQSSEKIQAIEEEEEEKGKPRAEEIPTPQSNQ
Procedure: (Test of obstructive action against cyclic AMP phosphodiesterase)
The obstructive action against cyclic AMP phosphodiesterase was measured according to the activity measuring method described in "Biochimica et Biophysica Acta", Vol. 429, pp. 485-497 (1976) and "Biochemical Medicine", Vol. 10, pp. 301-311 (1974).
That is, for determining the obstructive activity against cyclic AMP phosphodiesterase, 10 ml of a solution obtained by adding 1 mmol of MgCl2 into 50 mmol of tris-hydrochloric acid buffer with pH 7.4 was added to the platelets obtained by further centrifuging the above-said rabbit PRP at 3,000 r.p.m. for 10 minutes, and the suspended platelets were ground by a Teflon potter type homogenizer. This was followed by two times of freezing and thawing treatment and 300-second fracturing with 200 watt supersonic waves. After additional 60-minute centrifugation with 100,000 g, the supernatant was collected to use it as a crude enzyme solution.
10 Milliliters of this crude buffer solution was added to a 1.5×20 cm DEAE-cellulose column which has previously been buffered with 50 mmol of tris-acetate buffer (pH 6.0), followed by washing and elution with 30 ml of 50 mmol tris-acetate buffer, and this buffer solution was subjected to linear gradient elution with 0 to 1 moles of sodium acetate-tris-acetate buffer. The flow rate was 0.5 ml/min, and 5 ml of each fraction was batched out. […] This fraction was used as cyclic AMP phosphodiesterase.
0.1 Milliliter of an aqueous solution of each test compound of a specified concentration was mixed with 40 mmol of tris-hydrochloric acid buffer (pH 8.0, containing 50 μg of cow serum albumin and 4 mmol of MgCl2) containing predetermined 0.4 μmol of cyclic AMP (tritium cyclic AMP), and 0.2 ml of this mixed solution was used as a substrate solution.
0.2 Milliliter of the above-prepared cyclic AMP phosphodiesterase of a predetermined concentration was added to said substrate solution and the mixture was reacted at 30° C. for 20 minutes, producing tritium 5'-AMP from the tritium cyclic AMP.
The reaction system was then immersed in boiling water for 2 minutes to stop the reaction, and then this reaction solution was cooled in ice water and, for converting the produced tritium 5'-AMP into tritium adenosine, the solution was added with 0.05 ml (1 mg/ml) of snake poison as 5'-nucleotidase and reacted at 30° C. for 10 minutes. The whole amount of this reaction solutions was then added to a cation exchange resin (AG 500 W×4, 200-400 meshes, manufactured by Bio-Rad Co., column size: 0.5×1.5 cm), and the produced tritium anodesine alone was allowed to combine, washed with 6 ml of distilled water and eluted with 1.5 ml of 3 N-ammonia water. The whole quantity of the elutant was added with 10 ml of a triton-toluene type scintillator and the produced tritium adenosine was measured by a liquid scintillation counter to determine the phosphodiesterase activity.
In this way, the phosphodiesterase activation value (Vs) of the test compounds of the respective concentrations was determined, and the phosphodiesterase obstruction rate (%) was determined from said activation value (Vs) and control value (Vc) (obtained from water not containing any test compound) from the following formula: [formula]

[2] = tested on: cerebral blood flow, bastard dog; assay: Increasing effect of cerebral blood flow in anesthetized dog; type: in vivo; settings: Canis lupus familiaris, iv, through profunda femoris vein, dog; for change in vivo at 0.3 mg/kg: dosage 300 μg/kg
Procedure: (Test of increasing effect of cerebral blood flow)
Thus, a bastard dog (male, 12-20 kg of body weight) was fixed in a prone (position) and was anesthetized with […] of pentobarbital sodium and forced to breathe at a frequency of respiration of 20 times/minute. Then, the skull was bared and the surface bone was removed to expose the venous sinus by using a grinder and the venous blood was taken out from the venas which was cannulizated. The amount of venous blood flow was measured by using an electromagnetic blood flow meter and next measured by using drop-counter to measure the number of drops of blood per 10 seconds.
The increasing effect of cerebral blood flow was calculated by comparing the number of blood drops in 30 seconds at the peak of increasement shown before and after the administration of compound to be tested. Each of the compounds to be tested was dissolved in dimethylformamide and diluted with physiological saline solution and administered through a cannule being inserted into the profunda femoris vein.

Structure (SMILES) | inhibition at 1 µM [1] [%] | inhibition [1] [%] | inhibition at 0.01 µM [1] [%] | inhibition at 0.001 µM [1] [%] | change in vivo at 0.03 mg/kg ([2]; dosage 30 μg/kg) [%] | change in vivo at 0.3 mg/kg [2] [%]
O=c1ccc2cc(OCCCc3nnnn3C3CCCCC3)ccc2[nH]1 [Compound 1, 6-[3-(1-Cyclohexyltetrazol-5-yl)propoxy]carbostyril] | 92.9 | 83.8 | 58.4 | 44.7 | 36.9 | 72.2
O=c1ccc2cc(OCCCc3nnnn3CC3CCCCC3)ccc2[nH]1 [Compound 5, 6-[3-(1-Cyclohexylmethyltetrazol-5-yl)propoxy]carbostyril] | 89.9 | 73.4 | 55.2 | 38.6 |  | 71
O=c1ccc2cc(OCCCc3nnnn3C3CCCCCCC3)ccc2[nH]1 [Compound 6, 6-[3-(1-Cyclooctyltetrazol-5-yl)propoxy]carbostyril] | 88.4 | 79.6 | 57.4 | 36.5 |  | 75.3
O=c1ccc2cc(OCCCCc3nnnn3C3CCCCC3)ccc2[nH]1 [Compound 7, 6-[4-(1-Cyclohexyltetrazol-5-yl)butoxy]carbostyril] |  | 98.4 | 68.3 | 50.6 |  | 68.4
